Results as given in patent US8916571B2, “Methods of treating cancer using inhibitors of 5′-methylthioadenosine phosphorylase” (Albert Einstein College of Medicine of Yeshiva University, priority 2006, dated 2014).
“Also recorded” adds a separate entry of the source.

Legend:
[1] = test system: FaDu cells; assay: Cell cycle and apoptosis analysis of FaDu cells (propidium staining, FACS); type: cell-based, human; conditions: for Apoptosis / G1 / G2 / S: 6 days
Description: (§1) FaDu cells were maintained in MEM Eagle's media supplemented with 10% fetal bovine serum, 100 units/ml penicillin, 100 μg/mL streptomycin, 0.1 mM non essential amino acids and 1 mM sodium pyruvate. Cell survival was evaluated using the WST-1 assay (Kicska G A, long Li, Honig H, et al. Proc Natl Acad Sci USA 2001; 98:4593-98). Cells were seeded onto 96 well plates at a density of 10^4 cells per well, with either no additions, 1 μM compound (2), 20 μM MTA or 1 μM compound (2)+20 μM MTA, IC50 was determined following the manufacturer's protocol (Roche Applied Science, Ind.). Cells were grown and measured in triplicate or quadruplicate and the error bars show the mean±SD of the multiple samples.
FaDu cells were subjected to six days in culture using the same conditions described as for Example 4, before staining with propidium […] and FACS cell sorting analysis.

[2] = test system: mouse lung cancer cells (3LL); assay: Mouse 3LL lung cancer cell culture study; type: cell-based
Description: Growth of 3LL and RM1 cells was in Dulbecco's modified Eagle's medium containing serum and antibiotics with 5 mM sodium pyruvate and 0.25 mM non essential amino acid mixture (Gibco). Compound (1) was added as a sterile solution and MTA was absent or present at 20 μM.

[3] = test system: normal human fibroblast cells (GM02037); assay: Cytotoxicity on normal human fibroblast cells; type: cell-based; conditions: GM02037 cells treated with compound and MTA for 3 weeks
Description: In order to determine whether the inhibition is selective for malignant cells, normal human fibroblast cells (GM02037) were also treated with compound (2) and MTA for 3 weeks. […] This selectivity is a further indication that the MTAP inhibitors described above are useful agents for the treatment of head and neck cancer.

[4] = test system: FaDu xenografts; assay: FaDu xenograft study in NOD-SCID mice; type: in vivo, mouse
Description: NOD-SCID mice (6-8 weeks old) were obtained from Jackson Laboratory (Bar Harbor, Me.). FaDu cells (10^6) were inoculated into the dorsum of the hind foot. After 5 days, mice were treated with 9 mg/kg or 21 mg/kg body weight of compound (2) in drinking water or by daily i.p. injections of 5 mg/kg body weight of compound (2). After inoculation mice were assigned to treatment or control groups (n=5). Tumor volume (V) was determined from: V=(4/3)*(22/7)*1/8*(length*width*height). Differences between treatment cohorts were determined using the Student's t test. Mice were weighed every 4-5 days, monitored for hair loss, loss of appetite, vomiting and diarrhea. Total and differential blood and bone marrow analyses were performed after treatment with compound (2).

[5] = test system: liver polyamine levels; assay: Short-term treatment of mice, liver polyamine analysis; type: in vivo, mouse; conditions: short-term treatment (24, 48 hours, 7 days), 100 μM in drinking water
Description: C56BI/6 mice were treated with 100 μM compound (2) via their drinking water and sacrificed at 24, 48 hours, and 7 days. Livers were immediately removed for polyamine analysis. TRAMP mice were treated approximately 6-8 months with 100 μM compound (2) via their drinking water and control sacrificed. Livers were removed for polyamine analysis.
(§2) Spent media and perchloric acid extracts of both PC3 cells and tissue samples were subjected to purification via cation exchange chromatography and dansyl-derivatized with minor changes. Disposable 10 ml BIO-RAD columns were centrifuged at 4,000 rpm for 3 minutes. Sodium carbonate used for derivatization was adjusted to pH 9.3 and the concentration of dansyl-chloride was adjusted to 100 mM. Dansyl-polyamines were quantitated by a Waters HPLC/Fluorescence system. A Phenomenex Luna 5μ C18 column was used with a mobile phase of 30% acetonitrile in a 50 mM ammonium acetate buffer at pH 6.8 (eluent A) and 100% acetonitrile (eluent B). Fluorescence detection was monitored by excitation at 338 nm and emission at 500 nm.
Short-Term: Mice were treated with sterile solutions of 100 μM compound (2) (pH ˜6.4). Water bottles were autoclaved prior to filling with sterile inhibitor solutions. Mice were sacrificed at 1, 2, and 7 days, with three mice in each group, with the control group sacrificed after 7 days. […]

[6] = test system: FaDu cells; assay: Time dependent proliferation (WST-1) and phase contrast microscopy of FaDu cells; type: cell-based, human
Description: as §1
FaDu cells were subjected to six days in culture using the same conditions described as for Example 4.

[7] = test system: Cal27 cells; assay: Cal27 cells grown 8 days with compound and MTA; type: cell-based; conditions: 1 μM compound + 20 μM MTA, G2/M arrest and apoptosis
Description: FIGS. 25A and 25B show Cal27 cells grown for 8 days as control (untreated), in the presence of 20 μM MTA, 1 μM compound (2) alone or in combination (1 μM compound (2)+20 μM MTA).

[8] = test system: PC3 cells; assay: Time dependent proliferation of PC3 cells (WST-1 assay); type: cell-based, human; conditions: 1 μM compound + 20 μM MTA
Description: as §1, with “PC3” for “FaDu”, “Hong” for “Honig”, “MTA.” for “MTA,”

[9] = test system: TRAMP (transgenic adenocarcinoma of mouse prostate) mice; assay: Treatment of TRAMP mice (tumour mass, metastasis, MRI, histology, polyamines); type: in vivo; conditions: for prostate cancer progression: alone or in combination with MTA; for tumour weight upon dissection: TRAMP mouse treated with 1 mM compound
Description: MRI experiments were performed using a 9.4T 21 cm bore horizontal bore magnet (Magnex Scientific) Varian INOVA MRI system (Fremont, Calif.) equipped with a 28 mm inner diameter quadrature birdcage coil. Mice were anesthetized with isoflurane inhalation anesthesia (1-1.5% in 100% O2 administered via a nose cone) and positioned in the MRI coil. Body temperature was maintained (37-38° C.) using a homeothermic warming system. After acquiring scout images, multi-slice spin-echo imaging with an echo time of 18 ms and a repetition time of 400 ms ms was performed. A 40 mm field of view with a 256×256 matrix size was used. Nine to 15 slices along the transverse, sagittal, and coronal planes were acquired in each multi-slice experiment with a slice thickness of 1 mm and the gap between slices of 0.5 mm. MRI data were processed off-line with MATLAB-based MRI analysis software.
as §2
Long-Term: Sterile solutions of 100 μM compound (2) (pH ˜6.4). Water bottles were autoclaved prior to filling with sterile inhibitor solutions. Water consumption was monitored every other day, with fresh inhibitor solution being administered to prevent bacterial growth. Mice were control-sacrificed and tissues (genitourinary system, liver, lungs) were collected for histology and polyamine analysis. Mass and dimensions of excised genitourinary system tumours were recorded. Sections of small intestine were also removed for toxicity analysis via H&E staining.

[10] = test system: SCC25 cells; assay: Time dependent proliferation of SCC25 cells (WST-1 assay); type: cell-based, human; conditions: 1 μM compound + 20 μM MTA
Description: as §1, with “SCC25 cells were” for “FaDu cells were”, “long Li, Hong H, et” for “long Li, Honig H, et”, “1 μM MT-compound (2), 20” for “1 μM compound (2), 20”, “(2)+20 μM MTA. IC50 was” for “(2)+20 μM MTA, IC50 was”

[11] = test system: PC3 cells; assay: Quantitation of polyamines in PC3 cells and spent media (HPLC fluorescence); type: cell-based, human
Description: PC3 cells were cultured and treated in triplicate as follows: untreated control, 20 μM substrate (MTA) alone, 1 μM compound (2) alone, or a combination of both substrate and inhibitor. Both cells and spent media were harvested at 1, 6, and 12 days for polyamine analysis by HPLC fluorescence.
as §2

[12] = test system: PC3 cells; assay: Clonogenic survival assay of PC3 cells; type: cell-based, human; conditions: combination treatment with MTA, approximately 2 weeks
Description: • 1. 60% confluent plates of experimental cell line was taken and subjected to trypsinization • 2. Single cell suspension of the experimental cell line was made in the regular growth medium and number of cells per mililiter of suspension counted • 3. A fixed low number of cells were plated out in a volume of 3 ml of growth medium in each well of 6 well culture dishes and incubated overnight at 37° C. in a CO2 incubator • 4. Measured volumes of the inhibitor and substrate solutions in sterile deionised cell culture water was added to each well of the 6 well plates. Typically each concentration of inhibitor and/or substrate was added in triplicate wells to calculate error bars. […] At the end of the period of incubation growth medium was removed from each well, attached cells were washed once with PBS and fixed by addition of […] Formalin solution to each well and keeping at room temperature for ˜1 hour. • 7. […] Number of crystal violet stained colonies in each well containing more than 60 cells per colony was counted. • 10. Assuming each colony originated from a single surviving cell post-treatment and taking the number of colonies in the untreated control well as 1, the fraction of surviving cells in each well was calculated and plotted in a graph. […]

[13] = TRAMP mice, 100 μM in drinking water, n=12, 29 ± 7 weeks treated

CSC[C@H]1O[C@@H](n2cnc3c(N)ncnc32)[C@H](O)[C@@H]1O [MTA, methylthioadenosine]
Apoptosis ([1]; single agent): 6.66%
G1 ([1]; single agent): 79.67%
G2 ([1]; single agent): 9.91%
S ([1]; single agent): 10.42%

Nc1ncnc2c(CN3CC(O)[C@@H](CSCc4ccccc4)C3)c[nH]c12 (stereo partly drawn) [compound (1)]
response of mouse lung cancer cells in culture ([2]; in the absence of MTA): not responding
response of mouse lung cancer cells in culture ([2]; in the presence of 20 μM MTA): responding

CSC[C@H]1CN(Cc2c[nH]c3c(N)ncnc23)C[C@@H]1O [compound (2)]
cytotoxicity [3]: No cytotoxicity was observed
regrowth of tumor after treatment removed ([4]; 28 days after end of 28 day therapy, two highest doses): no regrowth of tumor
animal weight, total and differential blood counts vs control ([4]; NOD-SCID mice, after 28 day treatment): No significant differences
growth of established FaDu xenografts ([4]; NOD-SCID mice, oral or i.p., with or without MTA): significantly slower than in controls; also recorded: significantly delays the growth
polyamine levels of mice livers [5]: not significantly altered
cell proliferation ([6]; 1 μM compound + 20 μM MTA): reduces cell proliferation
cell growth (phase contrast photographs) ([6]; 5 days, inhibitor compound + MTA): effective in inhibiting cell growth
number of viable Cal27 cells [7]: decreased
cell proliferation [8]: reduces cell proliferation
Metastatic Cancer [9, 13]: 8%
Tumor Size [9, 13]: 1.7 ± 0.8 g
prostate cancer progression ([9]; TRAMP mice): inhibited
toxicity: intestinal crypts (H&E), hair loss, GI problems ([9]; TRAMP mice, long-term treatment): No alterations, inflammations, or irregularities were observed
tumour weight upon dissection ([9]; dissection at 34 weeks of age (Panel E)): 0.41 g
tumour weight upon dissection ([9]; dissection at 39 weeks of age (Panel F)): 0.64 g
TRAMP liver or GUS polyamine levels ([9]; extended treatment, 100 μM in drinking water): no significant alterations
size and incidence of preinvasive tumors, incidence of invasive cancer and metastasis ([9]; treated TRAMP mice, histology): decreased
stopping cell cycling / apoptosis ([1]; in combination with MTA): effective for stopping cell cycling
cell proliferation [10]: reduces cell proliferation
intracellular PUT levels ([11]; 1 μM compound + 20 μM MTA, 1 day): 3.03×10^−3±2.86×10^−2 pmoles PUT/mg protein
SPN levels in spent media ([11]; compound + MTA, 1 day): slightly decreased
increase in intracellular PUT levels vs control ([11]; compound + MTA, 1 day): 6 fold
increase in intracellular SPD levels vs control ([11]; compound + MTA, 1 day): ~2.5 fold
increase in spent media PUT levels vs control ([11]; compound + MTA, 1 day): 2 fold
intracellular SPD levels ([11]; compound + MTA, 1 day): 7.19×10^−3±4.38×10^−2 pmoles SPD/mg protein
spent media PUT levels ([11]; compound + MTA, 1 day): 1.19×10^3±2.04×10^−1 pmoles PUT/mL spent media
PUT level vs control ([11]; compound + MTA, 6 days): elevated
SPD level vs control ([11]; compound + MTA, 6 days): elevated
decrease in cellular SPN levels vs control ([11]; compound + MTA, 6 days): roughly 0.5 fold
levels of PUT in spent media ([11]; compound + MTA, 6 days): 2.41×10^−3±7.35×10^−1 pmoles PUT/mL spent media
levels of PUT in spent media relative to control ([11]; compound + MTA, 6 days): almost double that of the control
cellular SPD levels ([11]; compound + MTA, day 12): 9.05×10^−3±1.09×10^−3 pmoles SPD/mg protein
intracellular PUT levels vs controls ([11]; compound + MTA, day 12): significantly higher than controls
effect on PC3 cells in clonogenic assay [12]: cytostatic effect

CSC[C@H]1N[C@@H](c2c[nH]c3c(N)ncnc23)C(O)C1O (stereo partly drawn) [compound (3)]
prostate cancer progression ([9]; TRAMP mice): inhibits prostate cancer progression
Apoptosis ([1]; MTA+compound): 29.41%
G1 ([1]; MTA+compound): 8.26%
G2 ([1]; MTA+compound): 60.49%
S ([1]; MTA+compound): 31.25%
Apoptosis ([1]; single agent): 7.89%
G1 ([1]; single agent): 72.06%
S ([1]; single agent): 17.98%
